# Data: ChEMBL document CHEMBL3885861, “Open TG-GATES”
# Species: Rattus norvegicus
# Experiment: Open TG-GATES - Regimen: Single
# Assay type: toxicity, organism-based, Sprague-Dawley
# Parameters: regimen Single, gender Male, age 6 weeks
# Conditions: in vivo, po, 0 mg/kg, route gavage, dose level Control; for APTT / Bas / Eos / Fbg / Hb / Ht / Lym / MCH / MCHC / MCV / Mono / Neu / PT / Plat / RBC / Ret / WBC: tissue Blood; for KIDNEY_L / KIDNEY_R / KIDNEY_TOTAL: tissue Kidney; for LIVER: tissue Liver; for A/G / ALP / ALT / AST / BUN / CRE / Ca / Cl / DBIL / GLC / IP / K / LDH / Na / PL / RALB / TBIL / TC / TG / TP / gamma-GTP: tissue Plasma
smiles,measurement,setting,value
CC[C@H]1[C@@H]2C[C@H]3[C@@H]4N(C)c5ccccc5[C@]45C[C@@H]([C@@H]2[C@H]5O)N3[C@@H]1O [AJMALINE],TERMINAL_BW,3 h,194.6 g
same,APTT,3 h,16.6 s
same,Bas,3 h,0%
same,Eos,3 h,1%
same,Fbg,3 h,202.8 mg/dL
same,Hb,3 h,12.8 g/dL
same,Ht,3 h,39.1%
same,Lym,3 h,80.2%
same,MCH,3 h,21.8 pg
same,MCHC,3 h,32.9%
same,MCV,3 h,66.3 fL
same,Mono,3 h,6.8%
same,Neu,3 h,12.2%
same,PT,3 h,11.6 s
same,Plat,3 h,109.9 x10_4/uL
same,RBC,3 h,589.2 x10_4/ul
same,Ret,3 h,12.5%
same,WBC,3 h,94.6 x10_2/uL
same,KIDNEY_L,3 h,0.9 g
same,KIDNEY_R,3 h,0.9 g
same,KIDNEY_TOTAL,3 h,1.9 g
same,LIVER,3 h,9.4 g
same,A/G,3 h,2.5
same,ALP,3 h,879.4 IU/L
same,ALT,3 h,34.6 IU/L
same,AST,3 h,66.8 IU/L
same,BUN,3 h,10.6 mg/dL
same,CRE,3 h,0.4 mg/dL
same,Ca,3 h,11.4 mg/dL
same,Cl,3 h,100.8 meq/L
same,DBIL,3 h,0.04 mg/dL
same,GLC,3 h,191.4 mg/dL
same,IP,3 h,9.5 mg/dL
same,K,3 h,4.4 meq/L
same,LDH,3 h,95.4 IU/L
same,Na,3 h,137.2 meq/L
same,PL,3 h,149 mg/dL
same,RALB,3 h,3.7 g/dL
same,TBIL,3 h,0.3 mg/dL
same,TC,3 h,82.4 mg/dL
same,TG,3 h,69.4 mg/dL
same,TP,3 h,5.3 g/dL
same,gamma-GTP,3 h,2 IU/L
same,TERMINAL_BW,6 h,192.3 g
same,APTT,6 h,16.9 s
same,Bas,6 h,0%
same,Eos,6 h,1.2%
same,Fbg,6 h,196.2 mg/dL
same,Hb,6 h,13 g/dL
same,Ht,6 h,39.5%
same,Lym,6 h,73.4%
same,MCH,6 h,21.5 pg
same,MCHC,6 h,32.8%
same,MCV,6 h,65.3 fL
same,Mono,6 h,10.6%
same,Neu,6 h,15%
same,PT,6 h,11.6 s
same,Plat,6 h,113.8 x10_4/uL
same,RBC,6 h,605.4 x10_4/ul
same,Ret,6 h,10.6%
same,WBC,6 h,102.3 x10_2/uL
same,KIDNEY_L,6 h,0.9 g
same,KIDNEY_R,6 h,0.9 g
same,KIDNEY_TOTAL,6 h,1.7 g
same,LIVER,6 h,8.3 g
same,A/G,6 h,2.2
same,ALP,6 h,832.4 IU/L
same,ALT,6 h,34.6 IU/L
same,AST,6 h,61.8 IU/L
same,BUN,6 h,9.6 mg/dL
same,CRE,6 h,0.5 mg/dL
same,Ca,6 h,10.7 mg/dL
same,Cl,6 h,103.4 meq/L
same,DBIL,6 h,0.042 mg/dL
same,GLC,6 h,187 mg/dL
same,IP,6 h,10 mg/dL
same,K,6 h,4.8 meq/L
same,LDH,6 h,72.6 IU/L
same,Na,6 h,138.8 meq/L
same,PL,6 h,133.2 mg/dL
same,RALB,6 h,3.5 g/dL
same,TBIL,6 h,0.4 mg/dL
same,TC,6 h,83.6 mg/dL
same,TG,6 h,64.8 mg/dL
same,TP,6 h,5.2 g/dL
same,gamma-GTP,6 h,1.6 IU/L
same,TERMINAL_BW,9 h,192.7 g
same,APTT,9 h,17.8 s
same,Bas,9 h,0%
same,Eos,9 h,1%
same,Fbg,9 h,199.4 mg/dL
same,Hb,9 h,12.7 g/dL
same,Ht,9 h,38.6%
same,Lym,9 h,79.6%
same,MCH,9 h,22.2 pg
same,MCHC,9 h,32.9%
same,MCV,9 h,67.5 fL
same,Mono,9 h,7.8%
same,Neu,9 h,11.6%
same,PT,9 h,12.3 s
same,Plat,9 h,114.2 x10_4/uL
same,RBC,9 h,573.2 x10_4/ul
same,Ret,9 h,9.6%
same,WBC,9 h,93.3 x10_2/uL
same,KIDNEY_L,9 h,0.9 g
same,KIDNEY_R,9 h,0.9 g
same,KIDNEY_TOTAL,9 h,1.8 g
same,LIVER,9 h,8.2 g
same,A/G,9 h,2.4
same,ALP,9 h,800.8 IU/L
same,ALT,9 h,32.6 IU/L
same,AST,9 h,63 IU/L
same,BUN,9 h,12.2 mg/dL
same,CRE,9 h,0.6 mg/dL
same,Ca,9 h,10.4 mg/dL
same,Cl,9 h,104.6 meq/L
same,DBIL,9 h,0.064 mg/dL
same,GLC,9 h,190.4 mg/dL
same,IP,9 h,10.4 mg/dL
same,K,9 h,4.9 meq/L
same,LDH,9 h,82 IU/L
same,Na,9 h,138.2 meq/L
same,PL,9 h,126.4 mg/dL
same,RALB,9 h,3.7 g/dL
same,TBIL,9 h,0.3 mg/dL
same,TC,9 h,74.6 mg/dL
same,TG,9 h,42.8 mg/dL
same,TP,9 h,5.2 g/dL
same,gamma-GTP,9 h,0.8 IU/L
same,TERMINAL_BW,24 h,206.2 g
same,APTT,24 h,16.5 s
same,Bas,24 h,0%
same,Eos,24 h,0.8%
same,Fbg,24 h,211.2 mg/dL
same,Hb,24 h,12.6 g/dL
same,Ht,24 h,38.2%
same,Lym,24 h,75%
same,MCH,24 h,21.6 pg
same,MCHC,24 h,33.1%
same,MCV,24 h,65.4 fL
same,Mono,24 h,8.4%
same,Neu,24 h,15.6%
same,PT,24 h,11.5 s
same,Plat,24 h,106.9 x10_4/uL
same,RBC,24 h,584.2 x10_4/ul
same,Ret,24 h,10.1%
same,WBC,24 h,107.2 x10_2/uL
same,KIDNEY_L,24 h,0.9 g
same,KIDNEY_R,24 h,0.9 g
same,KIDNEY_TOTAL,24 h,1.8 g
same,LIVER,24 h,10.2 g
same,A/G,24 h,2.1
same,ALP,24 h,885.6 IU/L
same,ALT,24 h,38.6 IU/L
same,AST,24 h,66.4 IU/L
same,BUN,24 h,16.8 mg/dL
same,CRE,24 h,0.6 mg/dL
same,Ca,24 h,11 mg/dL
same,Cl,24 h,102.6 meq/L
same,DBIL,24 h,0.026 mg/dL
same,GLC,24 h,202.2 mg/dL
same,IP,24 h,8.4 mg/dL
same,K,24 h,4.6 meq/L
same,LDH,24 h,86.8 IU/L
same,Na,24 h,140.6 meq/L
same,PL,24 h,146.8 mg/dL
same,RALB,24 h,3.6 g/dL
same,TBIL,24 h,0.3 mg/dL
same,TC,24 h,81 mg/dL
same,TG,24 h,103 mg/dL
same,TP,24 h,5.4 g/dL
same,gamma-GTP,24 h,1.2 IU/L
